Measured values reported in patent publication US9359372B2, “Hexahydrodibenzo[a,g]quinolizine compound, preparation method thereof, pharmaceutical composition and use thereof” (SHANGHAI INSTITUTE OF MATERIA MEDICA, CHINESE ACADEMY OF …, priority 2011, dated 2016).

Key:
5-HT1A receptor = 5-HT1A receptor (Homo sapiens (Human), UniProt P08908); experiment: Affinity on 5-HT1A receptor, competition with [3H] 8-OH-DPAT; format: binding
Procedure: (§1) (1). Determination of the Affinity of Hexahydrodibenzo[a,g]Quinolizine Compound of General Formula I and Derivatives Thereof on Dopamine D1, Dopamine D2, 5-HT1A, and 5-HT2A Receptor.
(§2) 1) The Experimental Method
(§3) Different concentrations (10^−5 M-10^−11 M) of the compound of the invention and corresponding isotope receptor ligand as well as receptor protein were loaded into the reaction tube and incubated in 30° C. water bath for 60 minutes. The reaction was terminated in a refrigerator. The reaction mixture was put in a Millipore filter (millipore) cell sample collector, filtered through suction filtration using GF/C glass fiber filter paper, and dried. The resulting sample was placed into 0.5 mL tube. 500 μL liquid scintillation fluid was added and intensity of radioactivity was determined by counting.
(§4) (2) the Experimental Materials for Receptor Binding
8-OH-DPAT; 5-HT1A receptor protein expressed in HEK-293 cells;
(§5) Firstly, the above […] are dissolved in DMSO and then diluted with double distilled water to the appropriate concentration (10^−5 M-10^−11 M).
(§6) (+) Butaclamo purchased from RBI company, GF/C glass fiber filter paper purchased from Whatman Co., scintillation fluid (dopamine D1, D2 receptors)/liposoluble scintillation fluid (5-HT1A, 5-HT2A receptor), Beckman LS-6500 multi-function liquid scintillation counter.

dopamine D1 receptor = dopamine D1 receptor (Macaca mulatta (Rhesus macaque), UniProt O77680); experiment: Affinity on dopamine D1 receptor, competition with [3H] SCH23390; format: binding; design: D1 receptor inhibition ratio (%): concentration or dose not given beside the values; conditions: for affinity on dopamine D1 receptor (in words): summary of the tables
Procedure: as §1, §2, §3
(§7) (1) Construction of receptor and materials for cell culture: Escherichia coli. DH5α strain; insect virus transfer vector pVL1393 plasmid; BaculoGold linear Chinese baculovirus DNA, purchased from ParMingen company; mkD1RcDNA; rD2R cDNA; various restriction endonucleases, TaqDNA polymerase, T4 ligase, etc., LB medium; insect cell culture TNM-FH.
as §4, §5, §6

5-HT2A receptor = 5-HT2A receptor (Homo sapiens (Human), UniProt P28223); experiment: Affinity on 5-HT2A receptor, competition with [3H]-Ketanserin; format: binding
Procedure: as §1, §2, §3, §4, §5, §6

D2 dopamine receptor = D2 dopamine receptor (Rattus norvegicus (Rat), UniProt P61169); experiment: Affinity on dopamine D2 receptor, competition with [3H] Spiperone; format: binding; design: D2 receptor inhibition ratio (%): concentration or dose not given beside the values; conditions: for affinity on dopamine D2 receptor (in words): summary of the tables
Procedure: as §1, §2, §3, §7, §4, §5, §6

[1] = according to CN101037436; cited from earlier work
D1 dopamine receptors = D1 dopamine receptors (Homo sapiens (Human), UniProt P21728); experiment: Radioligand binding assay, D1 receptor, HEK293T membrane homogenates; conditions: HEK293T membranes, [3H]SCH23390
Procedure: (§8) The affinity of compounds to D1 and D2 dopamine receptors were determined by competition binding assays. Membrane homogenates of HEK293T cells were stably transfected with D1, or D2 receptors. […] The reaction was started by addition of membranes ([…]) and stopped by rapid filtration through Whatman GF/B glassfiber filter and subsequently washed with cold buffer (50 mM Tris, 5 mM EDTA, pH 7.4) using a Brandel 24-well cell harvester. Scintillation cocktail was added and the radioactivity was determined in a MicroBeta liquid scintillation counter. The IC50 and Ki values were calculated by nonlinear regression (PRISM, Graphpad, San Diego, Calif.) using a sigmoidal function.

dopamine D2 receptor [2] = molecular target: T1, dopamine D2 receptor (Homo sapiens (Human), UniProt P14416); experiment: Radioligand binding assay, D2 receptor, HEK293T membrane homogenates; design: D2 Inhibition (%): concentration or dose not given beside the values; conditions: HEK293T membranes, [3H]Spiperone
Procedure: as §8

D1 receptor = D1 receptor (Homo sapiens (Human), UniProt P21728); experiment: [35S]GTPγS binding assay for D1 receptor; format: biochemical
dopamine D2 receptor [3] = molecular target: T1, dopamine D2 receptor; experiment: Inhibition property on dopamine D2 receptor, cAMP detection in CHO cells stably expressing D2 receptor; format: cell-based; conditions: 10 μM Forskoline and 10 μM dopamine, read-out: D2 receptor Antagonist IC50
Procedure: 2. Determination of the Inhibition Property of Hexahydrodibenzo[a,g]Quinolizine Compound of General Formula I and Derivatives Thereof on Dopamine D2 Receptor.
(1) The Experimental Method
Each medicament was dissolved in serum-free F12 culture medium containing 100 μM of IBMX. CHO cells which can stably express D2 receptor were pre-incubated at 37° C. for 10 min, and then 10 μM Forskoline and 10 μM Dopanie were added at the same time to react for 10 min. 100 μL, of pre-cooled 1 M of HClO4 was added and the reaction was terminated at 4° C. for 1 hour. 20 μL of 2 M K2CO3 was added to neutralize the reaction. […] A certain amount of the supernatant was taken for cAMP detection.

5-HT2A receptor, sequence (P28223 whole entry): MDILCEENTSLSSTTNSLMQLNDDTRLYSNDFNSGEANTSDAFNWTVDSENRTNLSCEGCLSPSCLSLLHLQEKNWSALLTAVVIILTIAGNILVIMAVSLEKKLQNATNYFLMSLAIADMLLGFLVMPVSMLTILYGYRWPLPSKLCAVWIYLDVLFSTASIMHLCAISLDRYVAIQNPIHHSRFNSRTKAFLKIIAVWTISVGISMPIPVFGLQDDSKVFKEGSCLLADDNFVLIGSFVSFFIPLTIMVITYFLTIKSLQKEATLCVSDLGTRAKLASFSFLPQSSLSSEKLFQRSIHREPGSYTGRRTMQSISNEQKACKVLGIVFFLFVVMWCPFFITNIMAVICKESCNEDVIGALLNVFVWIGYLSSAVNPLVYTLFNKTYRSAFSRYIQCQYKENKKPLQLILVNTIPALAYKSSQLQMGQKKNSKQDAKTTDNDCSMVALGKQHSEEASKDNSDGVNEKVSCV
T1 sequence (P14416 whole entry, species assumed): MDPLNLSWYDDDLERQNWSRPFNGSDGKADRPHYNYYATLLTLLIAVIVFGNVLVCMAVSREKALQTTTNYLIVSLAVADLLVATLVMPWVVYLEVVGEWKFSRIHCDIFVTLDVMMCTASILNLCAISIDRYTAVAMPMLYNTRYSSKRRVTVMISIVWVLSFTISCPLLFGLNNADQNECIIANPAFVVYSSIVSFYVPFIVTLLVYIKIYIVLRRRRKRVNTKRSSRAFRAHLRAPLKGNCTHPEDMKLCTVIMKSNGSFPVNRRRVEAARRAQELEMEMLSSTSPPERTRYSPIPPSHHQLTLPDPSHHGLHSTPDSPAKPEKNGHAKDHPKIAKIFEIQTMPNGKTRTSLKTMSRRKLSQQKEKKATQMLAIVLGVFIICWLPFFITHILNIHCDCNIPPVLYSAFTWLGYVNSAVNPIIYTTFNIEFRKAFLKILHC
dopamine D1 receptor, sequence (O77680 whole entry): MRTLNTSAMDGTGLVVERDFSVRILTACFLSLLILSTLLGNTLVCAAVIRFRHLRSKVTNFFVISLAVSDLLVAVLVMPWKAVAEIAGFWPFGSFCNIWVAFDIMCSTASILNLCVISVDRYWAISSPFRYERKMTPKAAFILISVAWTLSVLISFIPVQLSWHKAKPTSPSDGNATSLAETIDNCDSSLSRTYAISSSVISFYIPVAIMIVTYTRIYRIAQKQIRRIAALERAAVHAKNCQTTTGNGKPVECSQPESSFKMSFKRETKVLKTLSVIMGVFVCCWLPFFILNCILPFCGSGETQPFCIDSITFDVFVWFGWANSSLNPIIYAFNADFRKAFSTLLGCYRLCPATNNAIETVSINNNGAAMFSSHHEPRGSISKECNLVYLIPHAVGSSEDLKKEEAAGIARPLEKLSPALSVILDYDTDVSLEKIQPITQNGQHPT
D1 receptor, sequence (P21728 whole entry): as the sequence (O77680 whole entry) above, with I311N counted along it
5-HT1A receptor, sequence (P08908 whole entry): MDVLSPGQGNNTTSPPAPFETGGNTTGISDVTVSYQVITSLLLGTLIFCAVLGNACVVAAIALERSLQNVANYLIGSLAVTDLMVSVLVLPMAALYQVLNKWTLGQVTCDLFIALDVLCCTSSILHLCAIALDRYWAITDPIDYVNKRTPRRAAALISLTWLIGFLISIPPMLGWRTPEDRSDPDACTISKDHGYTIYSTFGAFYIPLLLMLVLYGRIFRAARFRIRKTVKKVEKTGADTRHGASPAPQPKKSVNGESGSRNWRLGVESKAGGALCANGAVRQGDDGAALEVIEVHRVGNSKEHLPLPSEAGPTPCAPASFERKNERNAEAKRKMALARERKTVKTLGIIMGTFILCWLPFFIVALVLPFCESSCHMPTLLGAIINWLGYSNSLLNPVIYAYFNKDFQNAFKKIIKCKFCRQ
D2 dopamine receptor, sequence (P61169 whole entry): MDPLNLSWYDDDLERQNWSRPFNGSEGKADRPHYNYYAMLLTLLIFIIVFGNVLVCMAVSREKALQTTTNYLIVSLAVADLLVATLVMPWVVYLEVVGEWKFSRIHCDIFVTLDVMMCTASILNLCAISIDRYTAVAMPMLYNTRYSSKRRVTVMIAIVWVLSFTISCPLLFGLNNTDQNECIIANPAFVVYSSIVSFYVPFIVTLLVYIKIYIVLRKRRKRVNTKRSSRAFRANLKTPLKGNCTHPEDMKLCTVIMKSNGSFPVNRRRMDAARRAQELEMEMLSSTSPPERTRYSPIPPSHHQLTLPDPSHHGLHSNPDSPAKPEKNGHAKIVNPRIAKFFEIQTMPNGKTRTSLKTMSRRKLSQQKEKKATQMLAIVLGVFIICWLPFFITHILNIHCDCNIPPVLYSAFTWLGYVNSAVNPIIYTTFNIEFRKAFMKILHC
D1 dopamine receptors, sequence (P21728 whole entry): as the sequence (O77680 whole entry) above, with I311N counted along it

5-HT1A receptor inhibition ratio (%) (5-HT1A receptor) | IC50 (5-HT1A receptor) [µM] | Ki (5-HT1A receptor) [µM] | D1 receptor inhibition ratio (%) (dopamine D1 receptor) | IC50 (dopamine D1 receptor) [µM] | Ki (dopamine D1 receptor) [µM] | 5-HT2A receptor inhibition ratio (%) (5-HT2A receptor) | D2 receptor inhibition ratio (%) (D2 dopamine receptor) | affinity on dopamine D1 receptor (in words) (dopamine D1 receptor) | affinity on dopamine D2 receptor (in words) (D2 dopamine receptor) | Ki (D1 dopamine receptors) [µM] | D2 Inhibition (%) (dopamine D2 receptor [2]) | D1 antagonist Imax % (D1 receptor; [35S]GTPγS binding) [%] | IC50 (D1 receptor; [35S]GTPγS binding, read-out: D1 antagonist IC50) [µM] | D1 receptor antagonistic activity (in words) (D1 receptor; summary of Table 10) | D1 receptor selectivity (in words) (D1 receptor; summary of Table 10) | IC50 (dopamine D2 receptor [3]) [µM] | IC50 (D2 dopamine receptor) [µM] | Ki (D2 dopamine receptor) [µM] | Structure (SMILES) | oral bioavailability [1] [%]
– | – | – | – | – | – | – | – | – | – | – | – | – | – | – | – | – | – | – | COc1cc2c(cc1O)[C@@H]1Cc3ccc(O)c(OC)c3CN1CC2 [l-SPD, l-Stepholidine] | 6.83
88.63 | 0.758 | 0.6 | 97.33 | 0.324 | 0.182 | 45.63 | 41.75 | – | – | – | – | – | – | – | – | – | – | – | COc1cc(OC)c2c(c1CO)C[C@H]1c3cc4c(cc3CCN1C2)OCO4 [DC037077, (S)-2,3-methylenedioxy-9,11-bimethoxy-12-hydroxymethyl-5,8,13,13a-tetrahydro-6H-dibenzo[a,g]quinolizine] | –
95.36 | 0.0515 | 0.0406 | 99.21 | 0.0492 | 0.0253 | 37.75 | 28.67 | strong affinity | strong affinity | – | – | – | – | – | – | – | – | – | COc1ccc(OC)c2c1C[C@H]1c3cc4c(cc3CCN1C2)OCCO4 [DC037032] | –
80.41 | 0.626 | 0.493 | 99.89 | 0.00722 | 0.0037 | 39.99 | 74.27 | strong affinity | strong affinity | 0.0037 ± 0.00026 | 74.27 | 86.8 ± 1.6 | 1.9 ± 0.4 | D1 receptor antagonistic activity | good D1 receptor selectivity | – | – | – | COc1cc2c(cc1O)[C@@H]1Cc3c(OC)ccc(OC)c3CN1CC2 [DC037030, S-(−)-2-hydroxy-3,9,12-trimethoxy-5,8,13,13a-tetrahydro-6H-dibenzo[a,g]quinolizine] | –
– | – | – | 82.5 | 2.92 | 1.44 | – | 77.4 | – | – | – | – | – | – | – | – | 15.6 | – | – | COc1cc2c(cc1OC)C1Cc3cc(C)cc(C)c3CN1CC2 (racemic) [DC037018, (±)-2,3-bimethoxy-9,11-dimethyl-5,8,13,13a-tetrahydro-6H-dibenzo[a,g]quinolizine] | –
– | – | – | 101.0 | 0.101 | 0.0501 | – | 92.8 | – | – | – | – | – | – | – | – | 4.03 | 1.73 | 0.334 | COc1cc2c(cc1OC)[C@@H]1Cc3c(OC)ccc(OC)c3CN1CC2 [DC037008, S-(−)-2,3,9,12-tetramethoxy-5,8,13,13a-tetrahydro-6H-dibenzo[a,g]quinolizine] | –

Structure (SMILES) | 5-HT1A receptor inhibition ratio (%) (5-HT1A receptor) | IC50 (5-HT1A receptor) [µM] | Ki (5-HT1A receptor) [µM] | D1 receptor inhibition ratio (%) (dopamine D1 receptor) | IC50 (dopamine D1 receptor) [µM] | Ki (dopamine D1 receptor) [µM] | 5-HT2A receptor inhibition ratio (%) (5-HT2A receptor) | D2 receptor inhibition ratio (%) (D2 dopamine receptor) | affinity on dopamine D1 receptor (in words) (dopamine D1 receptor) | affinity on dopamine D2 receptor (in words) (D2 dopamine receptor) | Ki (D1 dopamine receptors) [µM] | D2 Inhibition (%) (dopamine D2 receptor [2]) | D1 antagonist Imax % (D1 receptor; [35S]GTPγS binding) [%] | IC50 (D1 receptor; [35S]GTPγS binding, read-out: D1 antagonist IC50) [µM] | D1 receptor antagonistic activity (in words) (D1 receptor; summary of Table 10) | D1 receptor selectivity (in words) (D1 receptor; summary of Table 10) | IC50 (dopamine D2 receptor [3]) [µM] | IC50 (D2 dopamine receptor) [µM] | Ki (D2 dopamine receptor) [µM] | oral bioavailability [1] [%]
COc1cc2c(c(OC)c1)CN1CCc3cc(OC)c(OC)cc3[C@@H]1C2 [DC037075, (S)-2,3,9,11-tetramethoxy-5,8,13,13a-tetrahydro-6H-dibenzo[a,g]quinolizine] | 90.77 | 0.922 | 0.73 | 97.88 | 0.114 | 0.0641 | 54.04 | 39.50 | – | – | – | – | – | – | – | – | – | – | – | –
